{"source": "patent USRE38863E1", "about": "“Chemotaxis assay procedure” (priority 1995, dated 2005)", "tested_on": "HL-60 cells", "assay": "Chemotaxis assay: fluorescence of Di-I labeled cells migrated across radiation opaque membrane", "type": "cell-based", "experimental": "The cell line HL-60 (ATCC No. CCL 240) was maintained in logarithmic growth phase as a suspension culture at about 10^6 cells/mL. in RPMI 1640 medium (Mediatech Cellgrow, Fisher Scientific, Pittsburgh, PA.) supplemented with 20% (volume by volume) fetal bovine serum. (Hyclone Laboratories, Salt Lake City, UT). The cells were differentiated into mature myelocytes and neutrophils by incubating the cells for 48 hours at 37° C. in media containing 1.5% (volume by volume) dimethylsulfoxide.\nFollowing the treatment with dimethylsulfoxide, the cells were incubated with 50 μM Di-I fluorescent dye (Molecular Probes, Inc., Eugene, OR) at room temperature for 0.5-2 hours. The cells were then washed with Hanks' Balanced Salt Solution (“HBSS”) (Sigma Chemical Co., St. Louis, MO.) and re-suspended in HBSS to achieve a cell concentration of 10^6 cells/mL. The fluorescence of 0.5 mL. of cell suspension was measured in a Cytofluor™ 2300 fluorescent plate reader (Millipore Corp., Marlborough, MA.).\nMembrane 1: Polycarbonate film having a plurality of pores of 8 μm diameter were coated with four molecular layers of carbon and one layer of an admixture of gold and palladium in a vacuum evaporator. […] 6 mm disks of the radiation opaque membrane were glued to the bottom of inserts similar to the Millicell HA-12 mm (Millipore Corp.) or the Transwell-6.5 mm (Costar Corp., Cambridge, MA.) inserts with clear silicone rubber cement.\nMembrane 2: A non-porous polyester film (18 μm thick) containing a blue dye (Aquired Technology Inc., Alpharetta, GA.) was subjected to atomic etching to produce a 10 μm thick radiation opaque membrane containing a plurality of pores of 8 μm diameter having a combined radiation blocking efficiency of approximately 99%. 6 mm disks of the radiation opaque membrane were glued to the bottoms of inserts as with membrane 1.\nEach insert equipped with the either membrane 1 or membrane 2 were placed in a well of a 24-well culture plate (Falcon, Fisher Scientific). 0.5 mL of labeled cell suspension was placed inside each insert. The plate was incubated for 30 minutes at 37° C. to allow the cells to settle on the radiation opaque membrane. The fluorescence of each well was then measured with the Cytofluor™ 2300 to obtain a zero time reading. 0.5 mL of either N-formyl methionyl leucyl phenylalanine (“f-MLP”) (Sigma Chemical Co.) or HBBS was then added to each well. The fluorescence in each well was then measured at periodic time intervals using the Cytofluor™ 2300 at sensitivity setting 4. Results using membrane 1 are reported in Tables 1 and 2 and graphically illustrated in FIGS. 4 and 5. Results using membrane 2 are reported in Table 3 and graphically illustrated in FIGS. 6 and 7.", "key": {"[1]": {"settings": "membrane 1, f-MLP/f-MLP (f-MLP also added to cell suspension immediately before start), 10^−7 M"}, "[2]": {"settings": "membrane 1, insert/well HBSS/f-MLP, f-MLP Conc. = 10^−8 M"}, "[3]": {"settings": "membrane 1, insert/well f-MLP/f-MLP (f-MLP added to cell suspension immediately before start), 10^−8 M"}, "[4]": {"settings": "membrane 1, test solutions well/insert HBSS/f-MLP, f-MLP Conc. = 10^−7 M"}, "[5]": {"settings": "membrane 2, Millicell-type insert, well 20: Insert leaked, insert/well HBSS/f-MLP, 2 × 10^−8 M"}, "[6]": {"settings": "membrane 2, Millicell-type inserts, insert/well HBSS/f-MLP, f-MLP Conc. = 2 × 10^−8 M"}, "[7]": {"settings": "membrane 2, Millicell-type inserts, insert/well f-MLP/f-MLP (f-MLP added to cell suspension immediately before start), 2 × 10^−8 M"}, "[8]": {"settings": "membrane 2, Transwell-type inserts, insert/well HBSS/f-MLP, f-MLP Conc. = 2 × 10^−8 M"}, "[9]": {"settings": "membrane 2, Transwell-type inserts, insert/well f-MLP/f-MLP (f-MLP added to cell suspension immediately before start), 2 × 10^−8 M"}}, "note": "“And” between values parts separate entries of the source, which are not always exact repeats. Identical values can stand only once."}
{"compound": "CSCC[C@H](NC=O)C(=O)N[C@@H](CC(C)C)C(=O)N[C@@H](Cc1ccccc1)C(=O)O", "note": "[f-MLP, N-formyl methionyl leucyl phenylalanine]", "values": [{"measurement": "Fluorescence 0 hr.", "setting": "membrane 1, f-MLP/f-MLP (f-MLP also added to cell suspension immediately before start), 10^−7 M, 0 hr.", "value": 706}, {"measurement": "Fluorescence 1 hr.", "setting": "[1]", "value": 654}, {"measurement": "Fluorescence 2 hr.", "setting": "[1]", "value": 708}, {"measurement": "Fluorescence 3 hr.", "setting": "[1]", "value": 732}, {"measurement": "Fluorescence 4 hr.", "setting": "[1]", "value": 728}, {"measurement": "Fluorescence 5 hr.", "setting": "[1]", "value": 753}, {"measurement": "FLUORESCENCE 0 min.", "setting": "membrane 1, insert/well HBSS/f-MLP, f-MLP Conc. = 10^−8 M, 0 min. (zero time reading)", "value": "2515 and 2927 and 2895 and 2631 and 2594"}, {"measurement": "FLUORESCENCE 15 min.", "setting": "[2]", "value": "3388 and 4195 and 4165 and 3398 and 3446"}, {"measurement": "FLUORESCENCE 30 min.", "setting": "[2]", "value": "3594 and 4475 and 4400 and 3584 and 3707"}, {"measurement": "FLUORESCENCE 60 min.", "setting": "[2]", "value": "3614 and 4642 and 4539 and 3645 and 3813"}, {"measurement": "FLUORESCENCE 90 min.", "setting": "[2]", "value": "3717 and 4761 and 4642 and 3728 and 3932"}, {"measurement": "FLUORESCENCE 150 min.", "setting": "[2]", "value": "3770 and 4788 and 4655 and 3728 and 3999"}, {"measurement": "FLUORESCENCE 0 min.", "setting": "membrane 1, insert/well f-MLP/f-MLP (f-MLP added to cell suspension immediately before start), 10^−8 M, 0 min.", "value": 2854}, {"measurement": "FLUORESCENCE 15 min.", "setting": "[3]", "value": 2675}, {"measurement": "FLUORESCENCE 30 min.", "setting": "[3]", "value": 2721}, {"measurement": "FLUORESCENCE 60 min.", "setting": "[3]", "value": 2721}, {"measurement": "FLUORESCENCE 90 min.", "setting": "[3]", "value": 2783}, {"measurement": "FLUORESCENCE 150 min.", "setting": "[3]", "value": 2783}, {"measurement": "Fluorescence 0 hr.", "setting": "membrane 1, test solutions well/insert HBSS/f-MLP, f-MLP Conc. = 10^−7 M, 0 hr. (zero time reading)", "value": 383}, {"measurement": "Fluorescence 1 hr.", "setting": "[4]", "value": 1046}, {"measurement": "Fluorescence 2 hr.", "setting": "[4]", "value": 1355}, {"measurement": "Fluorescence 3 hr.", "setting": "[4]", "value": 1433}, {"measurement": "Fluorescence 4 hr.", "setting": "[4]", "value": 1370}, {"measurement": "Fluorescence 5 hr.", "setting": "[4]", "value": 1359}, {"measurement": "Fluorescence 0 hr.", "setting": "membrane 2, Millicell-type insert, well 20: Insert leaked, insert/well HBSS/f-MLP, 2 × 10^−8 M, 0 hr.", "value": 1228}, {"measurement": "Fluorescence 0.5 hr.", "setting": "[5]", "value": 5928}, {"measurement": "Fluorescence 1 hr.", "setting": "[5]", "value": 6063}, {"measurement": "Fluorescence 2 hr.", "setting": "[5]", "value": 6342}, {"measurement": "Fluorescence 3 hr.", "setting": "[5]", "value": 6504}, {"measurement": "Fluorescence 0 hr.", "setting": "membrane 2, Millicell-type inserts, insert/well HBSS/f-MLP, f-MLP Conc. = 2 × 10^−8 M, 0 hr. (zero time reading)", "value": "1277 and 1242"}, {"measurement": "Fluorescence 0.5 hr.", "setting": "[6]", "value": "1573 and 1207"}, {"measurement": "Fluorescence 1 hr.", "setting": "[6]", "value": "1701 and 1830"}, {"measurement": "Fluorescence 2 hr.", "setting": "[6]", "value": "1836 and 1931"}, {"measurement": "Fluorescence 3 hr.", "setting": "[6]", "value": "1851 and 1969"}, {"measurement": "Fluorescence 0 hr.", "setting": "membrane 2, Millicell-type inserts, insert/well f-MLP/f-MLP (f-MLP added to cell suspension immediately before start), 2 × 10^−8 M, 0 hr.", "value": "1187 and 1231"}, {"measurement": "Fluorescence 0.5 hr.", "setting": "[7]", "value": "1181 and 1325"}, {"measurement": "Fluorescence 1 hr.", "setting": "[7]", "value": "1516 and 1454"}, {"measurement": "Fluorescence 2 hr.", "setting": "[7]", "value": "1622 and 1541"}, {"measurement": "Fluorescence 3 hr.", "setting": "[7]", "value": "1673 and 1604"}, {"measurement": "Fluorescence 0 hr.", "setting": "membrane 2, Transwell-type inserts, insert/well HBSS/f-MLP, f-MLP Conc. = 2 × 10^−8 M, 0 hr. (zero time reading)", "value": "1055 and 1064 and 1097"}, {"measurement": "Fluorescence 0.5 hr.", "setting": "[8]", "value": "1770 and 1454 and 1775"}, {"measurement": "Fluorescence 1 hr.", "setting": "[8]", "value": "2066 and 1846 and 2185"}, {"measurement": "Fluorescence 2 hr.", "setting": "[8]", "value": "2351 and 2143 and 2411"}, {"measurement": "Fluorescence 3 hr.", "setting": "[8]", "value": "2536 and 2292 and 2432"}, {"measurement": "Fluorescence 0 hr.", "setting": "membrane 2, Transwell-type inserts, insert/well f-MLP/f-MLP (f-MLP added to cell suspension immediately before start), 2 × 10^−8 M, 0 hr.", "value": "1049 and 961"}, {"measurement": "Fluorescence 0.5 hr.", "setting": "[9]", "value": "1277 and 1245"}, {"measurement": "Fluorescence 1 hr.", "setting": "[9]", "value": "1413 and 1390"}, {"measurement": "Fluorescence 2 hr.", "setting": "[9]", "value": "1538 and 1564"}, {"measurement": "Fluorescence 3 hr.", "setting": "[9]", "value": "1582 and 1711"}]}
